Laboratory results taken from patent US11878994B1, “Compositions for treatment of inflammation” (Metro International Biotech, LLC, priority 2021, dated 2024).

Key:
Jurkat cells = assay: NAD Elevation Assay (NAD Cellular Assay), Jurkat cells; type: cell-based; conditions: @ 1 mM, NAD normalized to total protein, multiple of NAD level in untreated cells
Experimental: Compounds were tested in an NAD Cellular Assay according to the following protocol. Jurkat cells (50,000 per in 100 microliters of RPMI media) were added to wells of a 96 well, conical bottomed plate. The cells were allowed to recover for 3 h in culture. A 16 microliter aliquot of a 100 mM compound stock solution was diluted with 784 microliters of medium and 10% FBS to give 800 microliters of a 2 mM compound treatment solution. The compound treatment solution was added to the cells for a final concentration of 1 mM compound (n=6 wells for each compound.) As a parallel control, nicotinamide mononucleotide (NMN) was added to cells at a final concentration of 2 mM (n=6). The plates were incubated for 24 hours, then spun at 1000 rpm for 10 min. The medium was removed, then the cells were washed with fresh PBS and spun again. The PBS medium was removed, then the cells were washed one more time with PBS and spun. The liquid was removed from each well via pipette, avoiding touching the cell pellet. The cells were lysed with 75 microliters of 0.5% DTAB. […] The NAD concentration in each well was determined using a commercially available assay according to the kit instructions (e.g. Promega NAD/NADH-Glo™ Assay.) The Pierce BCA protein assay was run according to the kit instructions (e.g. ThermoScientific Catalog number 23225). […]

NDF Cells = assay: NAD Elevation Assay (NAD Cellular Assay), NDF cells; type: cell-based; conditions: @ 0.25 mM, multiple of NAD level in untreated cells
Experimental: Compounds were tested in an NAD Cellular Assay according to the following protocol. Jurkat cells (50,000 per in 100 microliters of RPMI media) were added to wells of a 96 well, conical bottomed plate. The cells were allowed to recover for 3 h in culture. A 16 microliter aliquot of a 100 mM compound stock solution was diluted with 784 microliters of medium and 10% FBS to give 800 microliters of a 2 mM compound treatment solution. The compound treatment solution was added to the cells for a final concentration of 1 mM compound (n=6 wells for each compound.) As a parallel control, nicotinamide mononucleotide (NMN) was added to cells at a final concentration of 2 mM (n=6). The plates were incubated for 24 hours, then spun at 1000 rpm for 10 min. The medium was removed, then the cells were washed with fresh PBS and spun again. The PBS medium was removed, then the cells were washed one more time with PBS and spun. The liquid was removed from each well via pipette, avoiding touching the cell pellet. The cells were lysed with 75 microliters of 0.5% DTAB. 25 microliters of the lysate was added to each of two flat bottomed plates. One plate was used for a BCA protein assay (clear), and the other plate was used for the NAD assay (clear bottom, white walled). The NAD concentration in each well was determined using a commercially available assay according to the kit instructions (e.g. Promega NAD/NADH-Glo™ Assay.) The Pierce BCA protein assay was run according to the kit instructions (e.g. ThermoScientific Catalog number 23225). NAD levels were normalized to total protein and reported as a multiple of the NAD level in untreated cells.
Assays with other cell types were run similarly, using the appropriate compound and NMN dilutions. Cell counts were adjusted as necessary to provide a signal within the reading range of the protein and NAD assay kits.

| Compound | NAD Elevation Assay (Jurkat cells) [× @ 1] | NAD Elevation Assay (NDF Cells) [× @ 0.25] |
| --- | --- | --- |
| Cn1c(=O)c2c(ncn2CCOC(=O)c2ccc[n+]([C@@H]3O[C@H](CO)[C@@H](O)[C@H]3O)c2)n(C)c1=O.O=S(=O)([O-])C(F)(F)F [Compound 2, 1-((2R,3R,4S,5R)-3,4-dihydroxy-5-(hydroxymethyl)tetrahydrofuran-2-yl)-3-((2-(1,3-dimethyl-2,6-dioxo-1,2,3,6-tetrahydro-7H-purin-7-yl)ethoxy)carbonyl)pyridin-1-ium trifluoromethanesulfonate] | 2.9 | – |
| Cn1cnc2c1c(=O)n(CCCOC(=O)c1ccc[n+]([C@@H]3O[C@H](COP(=O)([O-])O)[C@@H](O)[C@H]3O)c1)c(=O)n2C [Compound 5P, ((2R,3S,4R,5R)-5-(3-((3-(3,7-dimethyl-2,6-dioxo-2,3,6,7-tetrahydro-1H-purin-1-yl)propoxy)carbonyl)pyridin-1-ium-1-yl)-3,4-dihydroxytetrahydrofuran-2-yl)methyl hydrogen phosphate] | – | 2.2 |
| Cn1c(=O)c2c(ncn2CC(=O)OCCCOC(=O)c2ccc[n+]([C@@H]3O[C@H](COP(=O)([O-])O)[C@@H](O)[C@H]3O)c2)n(C)c1=O [Compound 6P, ((2R,3S,4R,5R)-5-(3-((3-(2-(1,3-dimethyl-2,6-dioxo-1,2,3,6-tetrahydro-7H-purin-7-yl)acetoxy)propoxy)carbonyl)pyridin-1-ium-1-yl)-3,4-dihydroxytetrahydrofuran-2-yl)methyl hydrogen phosphate] | – | 2.0 |
| CCCn1cnc2c1c(=O)n(CCOC(=O)c1ccc[n+]([C@@H]3O[C@H](COP(=O)([O-])O)[C@@H](O)[C@H]3O)c1)c(=O)n2C [Compound 7P, ((2R,3 S,4R,5R)-3,4-dihydroxy-5-(3-((2-(3-methyl-2,6-dioxo-7-propyl-2,3,6,7-tetrahydro-1H-purin-1-yl)ethoxy)carbonyl)pyridin-1-ium-1-yl)tetrahydrofuran-2-yl)methyl hydrogen phosphate] | – | 1.9 |
